Measurements from patent US11350634B2, “Method for preparing biopesticide preparation for preventing and controlling Solenopsis invicta” (GUANGDONG INSTITUTE OF APPLIED […], priority 2017, dated 2022).

Tests used:
[1] = test system: Solenopsis invicta worker ants; experiment: Laboratory virulence test of the Beauveria bassiana/sodium chloride aqueous dispersion of water dispersible granule formulation (with adjuvants); assay type: in vivo; settings: worker ants dipped about 5 seconds, 96 hours after treatment, 1×10^8/mL spores, NaCl alone 125 mmol/L, FIG. 2
From the text: A totally 30 g of Beauveria bassiana powder formulation and sodium chloride (wherein a mass ratio of the Beauveria bassiana powder formulation to sodium chloride included 5:1.46, 5:4.38; 5:5.84, 5:7.30, 5:8.77, 5:11.69, 5:14.61 g, and 5:17.53, and the Beauveria bassiana powder formulation contained 20 billion Beauveria bassiana spores per gram), 8 g of wetting agent butylnaphtalenesulfonic acid sodium salt, 18 g of dispersant sodium lignosulfonate, 5 g of disintegrant calcium chloride, 2 g of stabilizer disodium hydrogen phosphate, 5 g of binder sodium polyacrylate, and 32 g of carrier diatomite, were weighed out and mixed according to a method for preparing a water dispersible granule formulation (1. The raw materials were mixed evenly according to the formula. 2. The materials were ground using a sand mill after mixed evenly, and subjected to spray granulation after determined to be acceptable. 3. The products were screened using a vibrating screen after the spray granulation, products with unacceptable appearance were returned to the sand mill to be ground again, and products with acceptable appearance were further subjected to quality inspection wherein products with unacceptable quality were also returned to the sand mill to be ground again. 4. Products with acceptable quality were packaged. 5. […]

[2] = test system: Solenopsis invicta worker ants; experiment: Laboratory virulence test of the combination of Beauveria bassiana and sodium chloride (Embodiment 1 method); assay type: in vivo; settings: for synergism / effect on the pesticidal effect of Beauveria bassiana: salt added to Beauveria bassiana solution instead of sodium chloride, Embodiment 1 test
Description: In the laboratory virulence test, 5 g of Beauveria bassiana powder formulation was dissolved in 1 L of water and mixed well to give a Beauveria bassiana solution. The used Beauveria bassiana powder formulation contained 20 billion/g of Beauveria bassiana spores. 9 Beauveria bassiana solutions, 100 mL each, were taken from the IL Beauveria bassiana solution, and respectively added with NaCl so that NaCl concentrations in the 9 Beauveria bassiana solutions were: 0 mmol/L, 25 mmol/L, 75 mmol/L, 100 mmol/L, 125 mmol/L, 150 mmol/L, 200 mmol/L, 250 mmol/L, and 300 mmol/L, and thereby Beauveria bassiana/sodium chloride aqueous dispersions were obtained, wherein the Beauveria bassiana spores were present in a concentration of 1×10^8/mL.
The Beauveria bassiana solution, the Beauveria bassiana/sodium chloride aqueous solution, a sodium chloride solution (125 mmol/L), and sterile water were respectively tested for virulence against healthy Solenopsis invicta worker ants, with 3 replicates for each treatment, 1 petri dish in each replicate, and 100 Solenopsis invicta worker ants in each petri dish. […] Data statistical analysis was performed using SPSS 13.0 software, significance testing between samples was performed using the Duncan's method, wherein different lowercase letters indicate a significant difference (P<0.05) in cumulative mortality of the treated Solenopsis invicta.

Row | Compound | 96 h cumulative mortality / pesticidal effect [1] | 96 h cumulative mortality / pesticidal effect ([2]; worker ants dipped about 5 seconds, 96 hours after treatment, 1×10^8/mL spores, NaCl alone 125 mmol/L, no adjuvants, FIG. 1) | synergism / effect on the pesticidal effect of Beauveria bassiana [2]
1 | [Cl-].[Na+] [NaCl, sodium chloride] | no killing effect | no killing effect | –
2 | [Cl-].[Cl-].[Mg+2] [magnesium chloride] | – | – | no significant difference
3 | [Cl][Fe]([Cl])[Cl] [ferric chloride] | – | – | no significant difference
4 | [Ca+2].[Cl-].[Cl-] [calcium chloride] | – | – | no significant difference
5 | [Cl-].[K+] [potassium chloride] | – | – | no significant difference
